pIC50: −log10 of the molar value. Read-outs that look alike come from different tables or passages of the source.
Key:
[1] = read-out: In vivo cMax; plasma concentration achievable in vivo at the FDA-recommended dose and schedule; cited from earlier work
relapsed AML cells = test: Drug sensitivity assay, 1,536-well, 3-day culture with individual approved drugs at 10 μM, viability by alamarBlue; assay type: cell-based, human; conditions: number of relapsed AML cases out of 18 tested with >70% cell death; 10 μM, 3-day culture
Summary of the method: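 Three-day exposure of primary AML cells to individual drugs in 1,536-well format, viability read as percent live cells. Cells were thawed, cultured overnight, sorted by FACS for viable blasts and plated at 4,000-4,500 cells/5 μL in cytokine-supplemented IMDM/BIT medium.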

AML patient samples = test: 10-point dose-response drug screen of statins against AML patient samples, 3-day drug sensitivity assay; assay type: cell-based, human; conditions: for pIC50: 3-day assay
Procedure: Drug sensitivity assays were performed using a 1,536-well platform where all cells and reagents were deposited in wells using an acoustic liquid handling unit that is highly accurate for dispensing of nanoliter volumes of liquid. […] After dispensing the cells into the wells, an independent drug at a known concentration is added to each well and incubated with the cells. After three days, the percentage of live cells in each well is determined to assess the killing efficiency of each compound. […] Cell viability assays are known to those of skill in the art. See, for example, Pemovska et al., Individualized systems medicine strategy to tailor treatments for patients with chemorefractory acute myeloid leukemia. Cancer Discovery 3:1416-1429, 2013; Pabst et al., Identification of small molecules that support human leukemia stem cell activity ex vivo. Nature Methods 11:436-442, 2014; Baccelli et al., A novel approach for the identification of efficient combination therapies in primary human acute myeloid leukemia specimens. Blood Cancer Journal 7:e529, 2017. In studies described herein, the 1,536-well format was utilized, which allowed for use of four times fewer cells as well as less drug and media components due to the small assay volume of 5 microliters. […] Other compounds like CellTiter-Glo (Promega, Madison, Wis.) are equally appropriate reagents for determining cell viability.
Conditions for the drug screening assays were as described in Pabst et al., Identification of small molecules that support human leukemia stem cell activity ex vivo, Nature Methods 11:436-442, 2014). Using this protocol, cells were cultured in Iscove's Modified Dulbecco's Medium (IMDM), 15% BIT (bovine serum albumin, insulin, transferrin; Stem Cell Technologies 09500 (Vancouver, Calif.)), 100 ng/ml SCF (Shenandoah 100-04 (Warwick, Pa.)), 50 ng/ml FLT3L (Shenandoah 100-21), 20 ng/ml IL-3 (Shenandoah 100-80), 20 ng/ml G-CSF (Shenandoah 100-72), 10^-4 M β-mercaptoethanol, gentamicin (50 μg/ml) and ciprofloxacin (10 μg/ml).
Cells were removed from liquid nitrogen and placed in a 37° C. bath, just until thawed. For 1,536-well screens utilizing 6,000 wells about 100 million cells were thawed. The volume was doubled with pre-warmed culture media and placed on ice for about one to two minutes. The cells were brought to a final volume of about 8 to 10 mL before spinning down at 1,100 rpm for 5 min at 10° C. The pelleted cells were resuspended in 10 mL of culture media and plated in a tissue-culture treated T75 flask at a density of 1 to 2 million cells/ml. The cells were cultured overnight prior to fluorescence-activated cell sorting of viable cells on the following day.
After cells were cultured overnight, a cell scraper was used to remove any cells that adhered to the plastic. The cells were gently pipetted up and down to break up aggregates. Then, the entire volume was transferred to a 50 mL conical tube through a 70 micron cell strainer to remove cell clumps. The T75 flask was rinsed and scraped with about 10 mL HBSS and transferred to the same 50 mL conical tube through the strainer. The harvested cells were spun down at 1,100 rpm for 5 min at 10° C. The cells were then resuspendd in about 300-500 microliters FACS buffer (HBSS+2% FBS+1× propidium iodide) and transferred to a FACS tube. The tube was placed on ice and viable cells that are forward- and side-scatter gated on viable myeloid blasts were sorted by FACS (the scatter gate should exclude small lymphocytes, large myeloid cells, and debris). After sorting the required number of viable cells, the cells were spun down at 1,100 rpm for 5 min at 10° C. and subsequently resuspended at 4,000-4,500 cells per 5 microliter volume of complete culture media with growth factors and penicillin/streptomycin.

[2] = target: cGMP-inhibited phosphodiesterase (PDE3); conditions: cited from earlier work
[3] = Homo sapiens, 72 h, patient sample AML 285, read-out: IC50 AML 285
[4] = Homo sapiens, 72 h, patient sample AML 290, read-out: IC50 AML 290
[5] = Homo sapiens, 72 h, patient sample AML 297, read-out: IC50 AML 297
[6] = Homo sapiens, 72 h, patient sample AML 299, read-out: IC50 AML 299
[7] = Homo sapiens, 72 h, patient sample AML 307, read-out: IC50 AML 307
[8] = Homo sapiens, 72 h, patient sample AML 330, read-out: IC50 AML 330
[9] = Homo sapiens, 72 h, patient sample AML 339, read-out: IC50 AML 339
[10] = Homo sapiens, 72 h, patient sample AML 340, read-out: IC50 AML 340
[11] = Homo sapiens, 72 h, patient sample AML 343, read-out: IC50 AML 343

| pIC50 (AML patient samples; [3]) | pIC50 (AML patient samples; [4]) | pIC50 (AML patient samples; [5]) | pIC50 (AML patient samples; [6]) | pIC50 (AML patient samples; [7]) | pIC50 (AML patient samples; [8]) | pIC50 (AML patient samples; [9]) | pIC50 (AML patient samples; [10]) | pIC50 (AML patient samples; [11]) | SMILES | Cmax [1] [nM] | #Cases >70% cell death (relapsed AML cells) | further results |
| --- | --- | --- | --- | --- | --- | --- | --- | --- | --- | --- | --- | --- |
| 6.37 | 6.38 | < 5.00 | 5.42 | 5.80 | < 5.00 | 5.11 | 6.14 | < 5.00 | CC(C)n1c(/C=C/C(O)CC(O)CC(=O)O)c(-c2ccc(F)cc2)c2ccccc21 (stereo not shown) [FLUVASTATIN] | 490 | 7 | pIC50 (AML patient samples; Homo sapiens, 72 h, patient sample AML 280, read-out: IC50 AML 280): 5.62 |
| < 5.00 | < 5.00 | 5.16 | < 5.00 | < 5.00 | < 5.00 | 5.29 | < 5.00 | < 5.00 | CCC(C)(C)C(=O)O[C@H]1C[C@@H](C)C=C2C=C[C@H](C)[C@H](CC[C@@H]3C[C@@H](O)CC(=O)O3)[C@H]21 [SIMVASTATIN] | – | 6 | – |
| – | – | – | – | – | – | – | – | – | O=C([O-])C[C@H](O)C[C@H](O)/C=C/c1c(C2CC2)nc2ccccc2c1-c1ccc(F)cc1.O=C([O-])C[C@H](O)C[C@H](O)/C=C/c1c(C2CC2)nc2ccccc2c1-c1ccc(F)cc1.[Ca+2] [PITAVASTATIN CALCIUM] | 250 | 13 | statin-mediated killing (AML patient samples; highly sensitive cases 285, 340 and 290, result in words): most significant activity; pIC50 (AML patient samples; patient sample AML 280, read-out: IC50 AML 280): 5.87; pIC50 (AML patient samples; patient sample AML 285, read-out: IC50 AML 285): 6.80; pIC50 (AML patient samples; patient sample AML 290, read-out: IC50 AML 290): 6.83; pIC50 (AML patient samples; patient sample AML 297, read-out: IC50 AML 297): < 5.00; pIC50 (AML patient samples; patient sample AML 299, read-out: IC50 AML 299): 5.74; pIC50 (AML patient samples; patient sample AML 307, read-out: IC50 AML 307): 6.14; pIC50 (AML patient samples; patient sample AML 330, read-out: IC50 AML 330): 5.01; pIC50 (AML patient samples; patient sample AML 339, read-out: IC50 AML 339): 5.28; pIC50 (AML patient samples; patient sample AML 340, read-out: IC50 AML 340): 6.32; pIC50 (AML patient samples; patient sample AML 343, read-out: IC50 AML 343): < 5.00 |
| – | – | – | – | – | – | – | – | – | COc1cc2c(cc1OC)-c1c/c(=N\c3c(C)cc(C)cc3C)n(C)c(=O)n1CC2.Cl [TREQUINSINçHCL] | – | 1 | pIC50 [2]: 9.60 |
